From ChEMBL document CHEMBL1137129, “Synthesis and structure-activity relationships of novel IKK-beta inhibitors. Part 2: Improvement of in vitro activity” (Bioorg Med Chem Lett, 2004)

How the values were obtained:
A549 = assay: TNF-alpha-induced RANTES production in A549 cells using ELISA assay; format: functional, cell-based; conditions: Homo sapiens
[1] = molecular target: T1, Inhibitor of nuclear factor kappa-B kinase subunit beta (Homo sapiens, UniProt O14920); assay: Inhibitory activity against recombinant human I-kappa-B-kinase beta
T1 sequence (O14920 whole entry): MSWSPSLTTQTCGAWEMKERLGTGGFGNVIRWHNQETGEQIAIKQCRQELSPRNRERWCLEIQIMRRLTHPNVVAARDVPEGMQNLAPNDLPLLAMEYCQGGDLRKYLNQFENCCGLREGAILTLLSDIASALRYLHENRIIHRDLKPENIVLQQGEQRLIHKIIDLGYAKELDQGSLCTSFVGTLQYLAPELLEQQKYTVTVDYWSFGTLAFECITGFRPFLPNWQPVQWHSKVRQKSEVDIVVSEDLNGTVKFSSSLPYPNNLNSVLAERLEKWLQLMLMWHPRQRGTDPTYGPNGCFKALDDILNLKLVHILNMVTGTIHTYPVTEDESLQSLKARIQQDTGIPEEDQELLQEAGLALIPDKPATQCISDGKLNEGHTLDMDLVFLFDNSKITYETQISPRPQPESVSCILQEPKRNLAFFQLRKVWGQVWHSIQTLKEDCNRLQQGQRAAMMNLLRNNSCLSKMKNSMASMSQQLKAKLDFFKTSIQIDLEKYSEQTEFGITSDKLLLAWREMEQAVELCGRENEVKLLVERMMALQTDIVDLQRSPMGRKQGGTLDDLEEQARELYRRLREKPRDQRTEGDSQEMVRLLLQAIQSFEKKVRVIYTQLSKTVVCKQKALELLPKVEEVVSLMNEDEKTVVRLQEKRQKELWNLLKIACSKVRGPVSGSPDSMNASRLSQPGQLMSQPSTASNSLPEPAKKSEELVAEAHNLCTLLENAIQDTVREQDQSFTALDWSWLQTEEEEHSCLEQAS

[2] = molecular target: T2, Inhibitor of nuclear factor kappa-B kinase subunit alpha (Homo sapiens, UniProt O15111); assay: Inhibition of I-kappa-B-kinase alpha
T2 sequence (O15111 whole entry): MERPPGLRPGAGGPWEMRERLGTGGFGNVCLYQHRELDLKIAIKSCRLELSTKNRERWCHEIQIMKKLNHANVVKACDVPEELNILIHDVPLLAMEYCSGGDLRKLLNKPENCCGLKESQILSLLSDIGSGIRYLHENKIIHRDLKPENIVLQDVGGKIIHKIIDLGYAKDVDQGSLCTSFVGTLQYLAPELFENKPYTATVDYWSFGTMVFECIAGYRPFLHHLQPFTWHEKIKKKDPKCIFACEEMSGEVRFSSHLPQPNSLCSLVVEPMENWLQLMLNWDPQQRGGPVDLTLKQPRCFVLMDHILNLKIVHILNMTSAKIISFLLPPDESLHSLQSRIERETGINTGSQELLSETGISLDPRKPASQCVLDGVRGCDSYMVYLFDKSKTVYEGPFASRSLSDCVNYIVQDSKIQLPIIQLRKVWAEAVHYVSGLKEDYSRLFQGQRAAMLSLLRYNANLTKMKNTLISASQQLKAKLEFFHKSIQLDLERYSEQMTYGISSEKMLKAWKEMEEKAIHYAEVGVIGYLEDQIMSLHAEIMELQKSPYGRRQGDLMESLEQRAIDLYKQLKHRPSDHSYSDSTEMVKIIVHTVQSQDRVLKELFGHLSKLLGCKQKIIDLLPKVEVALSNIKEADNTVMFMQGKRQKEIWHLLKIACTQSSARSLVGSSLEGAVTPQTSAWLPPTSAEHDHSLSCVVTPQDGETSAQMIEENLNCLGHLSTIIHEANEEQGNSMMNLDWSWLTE

[3] = Inhibition of Mitogen activated protein kinase kinase 4
PBMC = assay: Tested for LPS induced TNFalpha production in human PBMC cells; format: functional, cell-based
[4] = Tested for anti-CD3/anti-CD28-induced IL-2 production in Jurkat T-cell; format: functional, cell-based; conditions: Homo sapiens

IC50 (A549) [nM] | IC50 [1] [nM] | IC50 [2] [nM] | IC50 [3] [nM] | IC50 [4] [nM] | Structure (SMILES) | IC50 (PBMC) [nM]
1500 | 330 |  |  |  | CC(=O)Nc1nc(-c2ccccc2O)cc(C2CCCNC2)c1C#N (stereo not given) | 
 | 6200 |  |  |  | N#Cc1c(-c2cccnc2)cc(-c2ccccc2O)nc1N | 
8000 | 60 |  |  |  | N#Cc1c(C(N)Cc2ccccc2)cc(-c2ccccc2O)nc1N (stereo not given) | 
5000 | 40 |  |  |  | N#Cc1c(C(N)Cc2ccc(F)cc2)cc(-c2ccccc2O)nc1N (stereo not given) | 
20 | 6500 |  |  |  | CNc1nc(-c2ccccc2O)cc(C2CCCNC2)c1C#N (stereo not given) | 
5000 | 240 |  |  |  | CC(C)C(N)c1cc(-c2ccccc2O)nc(N)c1C#N (stereo not given) | 
5000 | 80 |  |  |  | COc1ccc(CC(N)c2cc(-c3ccccc3O)nc(N)c2C#N)cc1 (stereo not given) | 
4000 | 150 |  |  |  | CC(N)c1cc(-c2ccccc2O)nc(N)c1C#N (stereo not given) | 
300 | 25 | 450 | > 20000 | 600 | N#Cc1c(C2CCCNC2)cc(-c2ccccc2O)nc1N (stereo not given) | 400
15000 | 480 |  |  |  | CCCCC(N)c1cc(-c2ccccc2O)nc(N)c1C#N (stereo not given) | 
2000 | 230 |  |  |  | N#Cc1c(N)nc(-c2ccccc2O)c(F)c1C1CCCNC1 (stereo not given) | 
 | > 20000 |  |  |  | N#Cc1c(C2CCCNC2)cc(-c2ccccc2)nc1N (stereo not given) | 
800 | 70 |  |  |  | N#Cc1c(CCN)cc(-c2ccccc2O)nc1N | 
400 | 300 |  |  |  | N#Cc1c(C2CCNCC2)cc(-c2ccccc2O)nc1N | 
15000 | 730 |  |  |  | N#Cc1c(C(N)CCc2ccccc2)cc(-c2ccccc2O)nc1N (stereo not given) | 
2000 | 110 |  |  |  | N#Cc1c(CC(N)c2ccccc2)cc(-c2ccccc2O)nc1N (stereo not given) | 
6000 | 530 |  |  |  | N#Cc1c(C2CCCCN2)cc(-c2ccccc2O)nc1N (stereo not given) | 
1000 | 230 |  |  |  | CN1CCCC(c2cc(-c3ccccc3O)nc(N)c2C#N)C1 (stereo not given) | 

Structure (SMILES) | IC50 (A549) [nM] | IC50 [1] [nM] | IC50 [2] [nM] | IC50 [3] [nM] | IC50 [4] [nM] | IC50 (PBMC) [nM]
CC(N)Cc1cc(-c2ccccc2O)nc(N)c1C#N (stereo not given) | 3000 | 470 |  |  |  | 
